Data reported in patent US8759318B2, “Phosphoramidate derivatives of guanosine nucleoside compounds for treatment of viral infections” (Inhibitex, Inc., priority 2009, dated 2014).

Tests used:
in vitro = details: human
[1] = tested on: HCV replicon (Genotype 1b); experiment: Luciferase genotype 1b replicon potency assay; details: Hepatitis C virus, GETYPE1B, read-out: IC50 μM, HCV genotype 1b luciferase replicon, Renilla luciferase reporter

Compound	CC50 (in vitro) [µM]	IC50 [1] [µM]
CCOc1nc(N)nc2c1ncn2C1O[C@H](COP(=O)(N[C@@H](C)C(=O)OCc2ccc(F)cc2F)Oc2cccc3ccccc23)[C@@H](O)[C@@]1(C)O (stereo partly drawn) [Example 74, (2S)-2,4-difluorobenzyl 2-((((2R,3R,4R)-5-(2-amino-6-ethoxy-9H-purin-9-yl)-3,4-dihydroxy-4-methyltetrahydrofuran-2-yl)methoxy)(naphthalen-1-yloxy)phosphorylamino)propanoate]	17	0.034
COc1nc(N)nc2c1ncn2C1O[C@H](COP(=O)(N[C@H](C(=O)OCC(C)(C)C)c2ccccc2)Oc2cccc3ccccc23)[C@@H](O)[C@@]1(C)O (stereo partly shown) [Example 66]	19	0.032
COc1nc(N)nc2c1ncn2C1O[C@H](COP(=O)(N[C@H](C(=O)OCC(C)(C)C)C(C)C)Oc2cccc3ncccc23)[C@@H](O)[C@@]1(C)O (stereo partly drawn) [Example 50, (2S)-neopentyl 2-((((2R,3R,4R)-5-(2-amino-6-methoxy-9H-purin-9-yl)-3,4-dihydroxy-4-methyltetrahydrofuran-2-yl)methoxy)(quinolin-5-yloxy)phosphorylamino)-3-methylbutanoate]	> 100	0.55
COc1nc(N)nc2c1ncn2C1O[C@H](COP(=O)(N[C@H](C(=O)OC2CCCC2)C(C)C)Oc2cccc3ccccc23)[C@@H](O)[C@@]1(C)O (stereo partly shown) [Example 45]	56	0.33
COC(=O)[C@@H](C)c1ccc2cc(OP(=O)(N[C@H](C(=O)OCC(C)(C)C)C(C)C)OC[C@H]3OC(n4cnc5c(OC)nc(N)nc54)[C@](C)(O)[C@@H]3O)ccc2c1 (stereo partly drawn) [Example 48, (2S)-neopentyl 2-((((2R,3R,4R)-5-(2-amino-6-methoxy-9H-purin-9-yl)-3,4-dihydroxy-4-methyltetrahydrofuran-2-yl)methoxy) (6-((S)-1-methoxy-1-oxopropan-2-yl)naphthalen-2-yloxy)phosphorylamino)-3-methylbutanoate]	29	0.21
C[C@H](NP(=O)(OC[C@H]1OC(n2cnc3c(NCc4ccccc4)nc(N)nc32)[C@](C)(O)[C@@H]1O)Oc1cccc2ccccc12)C(=O)OCC(C)(C)C (stereo partly shown) [Example 85]	15	0.58
CSc1nc(N)nc2c1ncn2[C@@H]1O[C@H](COP(=O)(N[C@@H](C)C(=O)OCC(C)(C)C)Oc2ccc3ncccc3c2)[C@@H](O)[C@@]1(C)O (stereo partly drawn) [Example 91, (2S)-neopentyl 2-((((2R,3R,4R,5R)-5-(2-amino-6-(methylthio)-9H-purin-9-yl)-3,4-dihydroxy-4-methyltetrahydrofuran-2-yl)methoxy)(quinolin-6-yloxy)phosphorylamino)propanoate]	> 100	0.26
COC(=O)[C@@H](C)c1ccc2cc(OP(=O)(N[C@@H](C)C(=O)OCC(C)(C)C)OC[C@H]3OC(n4cnc5c(OC)nc(N)nc54)[C@](C)(O)[C@@H]3O)ccc2c1 (stereo partly drawn) [Example 28, (2S)-methyl 2-(6-((((2R,3R,4R)-5-(2-amino-6-methoxy-9H-purin-9-yl)-3,4-dihydroxy-4-methyltetrahydrofuran-2-yl)methoxy)((S)-1-(neopentyloxy)-1-oxopropan-2-ylamino)phosphoryloxy)naphthalen-2-yl)propanoate]	19	0.023
COc1nc(N)nc2c1ncn2C1O[C@H](COP(=O)(N[C@@H](C)C(=O)OCC(C)C)Oc2cccc3ccccc23)[C@@H](O)[C@@]1(C)O (stereo partly drawn) [Example 19, (2S)-isobutyl 2-((((2R,3R,4R)-5-(2-amino-6-methoxy-9H-purin-9-yl)-3,4-dihydroxy-4-methyltetrahydrofuran-2-yl)methoxy)(naphthalen-1-yloxy)phosphorylamino)propanoate]	14	0.037
COc1nc(NCc2ccc(F)cc2)nc2c1ncn2[C@@H]1O[C@H](COP(=O)(N[C@@H](C)C(=O)OCC(C)(C)C)Oc2cccc3ccccc23)[C@@H](O)[C@@]1(C)O (stereo partly drawn) [Example 93, (2S)-neopentyl 2-((((2R,3R,4R,5R)-5-(2-(4-fluorobenzylamino)-6-methoxy-9H-purin-9-yl)-3,4-dihydroxy-4-methyltetrahydrofuran-2-yl)methoxy)(naphthalen-1-yloxy)phosphorylamino)propanoate]	17	7.2
COc1nc(N)nc2c1ncn2C1O[C@H](COP(=O)(N[C@H](C(=O)OC2CCCCC2)c2ccccc2)Oc2cccc3ccccc23)[C@@H](O)[C@@]1(C)O (stereo partly drawn) [Example 67, (2S)-cyclohexyl 2-((((2R,3R,4R)-5-(2-amino-6-methoxy-9H-purin-9-yl)-3,4-dihydroxy-4-methyltetrahydrofuran-2-yl)methoxy)(naphthalen-1-yloxy)phosphorylamino)-2-phenylacetate]	22	0.054
CCOc1nc(N)nc2c1ncn2C1O[C@H](COP(=O)(N[C@H](C(=O)OCC(C)(C)C)C(C)C)Oc2cccc3ccccc23)[C@@H](O)[C@@]1(C)O (stereo partly drawn) [Example 79, (2S)-neopentyl 2-((((2R,3R,4R)-5-(2-amino-6-ethoxy-9H-purin-9-yl)-3,4-dihydroxy-4-methyltetrahydrofuran-2-yl)methoxy)(naphthalen-1-yloxy)phosphorylamino)-3-methylbutanoate]	24	0.22
COc1nc(N)nc2c1ncn2C1O[C@H](COP(=O)(N[C@H](C(=O)OCc2ccccc2)C(C)C)Oc2cccc3ccccc23)C[C@@]1(C)O (stereo partly drawn) [Example 99, benzyl (2S)-benzyl 2-((((2S,4R)-5-(2-amino-6-methoxy-9H-purin-9-yl)-4-hydroxy-4-methyltetrahydrofuran-2-yl)methoxy)(naphthalen-1-yloxy)phosphorylamino)-3-methylbutanoate]	22	> 10
COc1nc(N)nc2c1ncn2C1O[C@H](COP(=O)(N[C@H](C(=O)OCC(C)(C)C)C(C)C)Oc2cc(C(C)(C)C)cc3ccc(C(C)(C)C)cc23)[C@@H](O)[C@@]1(C)O (stereo partly shown) [Example 56]	13	2.1
COc1nc(N)nc2c1ncn2C1O[C@H](COP(=O)(N[C@@H](C)C(=O)O[C@@H](C)c2ccccc2)Oc2cccc3ccccc23)[C@@H](O)[C@@]1(C)O (stereo partly shown) [Example 15]	12	0.032
COc1nc(N)nc2c1ncn2C1O[C@H](COP(=O)(N[C@@H](C)C(=O)OC(C)C)Oc2cccc3ccccc23)[C@@H](O)[C@@]1(C)O (stereo partly drawn) [Example 23, (2S)-isopropyl 2-((((2R,3R,4R)-5-(2-amino-6-methoxy-9H-purin-9-yl)-3,4-dihydroxy-4-methyltetrahydrofuran-2-yl)methoxy)(naphthalen-1-yloxy)phosphorylamino)propanoate]	100	0.43
COc1nc(N)nc2c1ncn2C1O[C@H](COP(=O)(N[C@@H](C)C(=O)OC2CCOCC2)Oc2ccc3ncccc3c2)[C@@H](O)[C@@]1(C)O (stereo partly drawn) [Example 34, (2S)-tetrahydro-2H-pyran-4-yl 2-((((2R,3R,4R)-5-(2-amino-6-methoxy-9H-purin-9-yl)-3,4-dihydroxy-4-methyltetrahydrofuran-2-yl)methoxy)(quinolin-6-yloxy)phosphorylamino)propanoate]	> 100	1.1
CCOc1nc(N)nc2c1ncn2C1O[C@H](COP(=O)(N[C@@H](C)C(=O)OCc2ccccc2)Oc2cccc3ccccc23)[C@@H](O)[C@@]1(C)O (stereo partly drawn) [Example 73, (2S)-benzyl 2-((((2R,3R,4R)-5-(2-amino-6-ethoxy-9H-purin-9-yl)-3,4-dihydroxy-4-methyltetrahydrofuran-2-yl)methoxy)(naphthalen-1-yloxy)phosphorylamino)propanoate]	11	0.037
COC(=O)[C@@H](NP(=O)(OC[C@H]1OC(n2cnc3c(OC)nc(N)nc32)[C@](C)(O)[C@@H]1O)Oc1cccc2ccccc12)C(C)C (stereo partly drawn) [Example 41, (2S)-methyl 2-((((2R,3R,4R)-5-(2-amino-6-methoxy-9H-purin-9-yl)-3,4-dihydroxy-4-methyltetrahydrofuran-2-yl)methoxy)(naphthalen-1-yloxy)phosphorylamino)-3-methylbutanoate]	22	0.38
COc1nc(N)nc2c1ncn2C1O[C@H](COP(=O)(N[C@@H](C)C(=O)OCc2ccc(F)cc2F)Oc2cccc3ccccc23)[C@@H](O)[C@@]1(C)O (stereo partly drawn) [Example 14, (2S)-2,4-difluorobenzyl 2-((((2R,3R,4R)-5-(2-amino-6-methoxy-9H-purin-9-yl)-3,4-dihydroxy-4-methyltetrahydrofuran-2-yl)methoxy)(naphthalen-1-yloxy)phosphorylamino)propanoate]	15	0.04
COc1nc(N)nc2c1ncn2C1O[C@H](COP(=O)(N[C@@H](C)C(=O)OCC(C)(C)C)Oc2ccccc2)[C@@H](O)[C@@]1(C)O (stereo partly drawn) [Example 35, (2S)-neopentyl 2-((((2R,3R,4R)-5-(2-amino-6-methoxy-9H-purin-9-yl)-3,4-dihydroxy-4-methyltetrahydrofuran-2-yl)methoxy)(phenoxy)phosphorylamino)propanoate]	38	0.049
CSc1nc(N)nc2c1ncn2C1O[C@H](COP(=O)(N[C@@H](C)C(=O)O[C@@H](C)c2ccccc2)Oc2cccc3ccccc23)[C@@H](O)[C@@]1(C)O (stereo partly drawn) [Example 89, (2S)-((S)-1-phenylethyl) 2-((((2R,3R,4R)-5-(2-amino-6-(methylthio)-9H-purin-9-yl)-3,4-dihydroxy-4-methyltetrahydrofuran-2-yl)methoxy)(naphthalen-1-yloxy)phosphorylamino)propanoate]	27	0.14
CNc1nc(N)nc2c1ncn2[C@@H]1O[C@H](COP(=O)(N[C@@H](C)C(=O)OCC(C)(C)C)Oc2ccc3ncccc3c2)[C@@H](O)[C@@]1(C)O (stereo partly drawn) [Example 83, (2S)-neopentyl 2-((((2R,3R,4R,5R)-5-(2-amino-6-(methylamino)-9H-purin-9-yl)-3,4-dihydroxy-4-methyltetrahydrofuran-2-yl)methoxy)(quinolin-6-yloxy)phosphorylamino)propanoate]	> 100	0.36
